Tests used:
[1] = tested on: Panel NCI-60 (60 carcinoma cell lines); assay: Cytotoxicity against human Panel NCI-60 (60 carcinoma cell lines) assessed as mean growth inhibition; format: functional
HT-29 [2] = assay: Antiproliferative activity against human HT-29 cells assessed as reduction in cell viability; format: functional, cell-based
HL-60(TB) = assay: Cytotoxicity against human HL-60(TB) cells assessed as cell growth inhibition; format: functional, cell-based
NCI-H460 = assay: Cytotoxicity against human NCI-H460 cells assessed as cell growth inhibition; format: functional, cell-based
MCF7 = assay: Cytotoxicity against human MCF7 cells assessed as cell growth inhibition; format: functional, cell-based
U-251 = assay: Cytotoxicity against human U-251 cells assessed as cell growth inhibition; format: functional, cell-based
UO-31 = assay: Cytotoxicity against human UO-31 cells assessed as cell growth inhibition; format: functional, cell-based
DU-145 = assay: Cytotoxicity against human DU-145 cells assessed as cell growth inhibition; format: functional, cell-based
NCI-H522 = assay: Cytotoxicity against human NCI-H522 cells assessed as cell growth inhibition; format: functional, cell-based
HCC 2998 = assay: Cytotoxicity against human HCC 2998 cells assessed as cell growth inhibition; format: functional, cell-based
SF-268 = assay: Cytotoxicity against human SF-268 cells assessed as cell growth inhibition; format: functional, cell-based
A549 = assay: Cytotoxicity against human A549 cells assessed as cell growth inhibition; format: functional, cell-based
ACHN = assay: Cytotoxicity against human ACHN cells assessed as cell growth inhibition; format: functional, cell-based
COLO 205 = assay: Cytotoxicity against human COLO 205 cells assessed as cell growth inhibition; format: functional, cell-based
MDA-MB-231 = assay: Cytotoxicity against human MDA-MB-231 cells assessed as cell growth inhibition; format: functional, cell-based
HOP-62 = assay: Cytotoxicity against human HOP-62 cells assessed as cell growth inhibition; format: functional, cell-based
HCT-15 = assay: Cytotoxicity against human HCT-15 cells assessed as cell growth inhibition; format: functional, cell-based
SNB-19 = assay: Cytotoxicity against human SNB-19 cells assessed as cell growth inhibition; format: functional, cell-based
A498 = assay: Cytotoxicity against human A498 cells assessed as cell growth inhibition; format: functional, cell-based
HT-29 [3] = assay: Cytotoxicity against human HT-29 cells assessed as cell growth inhibition; format: functional, cell-based
Hs-578T = assay: Cytotoxicity against human Hs-578T cells assessed as cell growth inhibition; format: functional, cell-based
NCI-H226 = assay: Cytotoxicity against human NCI-H226 cells assessed as cell growth inhibition; format: functional, cell-based
SNB-75 = assay: Cytotoxicity against human SNB-75 cells assessed as cell growth inhibition; format: functional, cell-based
NCI/ADR-RES = assay: Cytotoxicity against human NCI/ADR-RES cells assessed as cell growth inhibition; format: functional, cell-based
MDA-MB-435 = assay: Cytotoxicity against human MDA-MB-435 cells assessed as cell growth inhibition; format: functional, cell-based
RPMI-8226 = assay: Cytotoxicity against human RPMI-8226 cells assessed as cell growth inhibition; format: functional, cell-based
UACC-257 = assay: Cytotoxicity against human UACC-257 cells assessed as cell growth inhibition; format: functional, cell-based
T47D = assay: Cytotoxicity against human T47D cells assessed as cell growth inhibition; format: functional, cell-based
SN12C = assay: Cytotoxicity against human SN12C cells assessed as cell growth inhibition; format: functional, cell-based
TK-10 = assay: Cytotoxicity against human TK-10 cells assessed as cell growth inhibition; format: functional, cell-based
Malme-3M = assay: Cytotoxicity against human Malme-3M cells assessed as cell growth inhibition; format: functional, cell-based
SF-539 = assay: Cytotoxicity against human SF-539 cells assessed as cell growth inhibition; format: functional, cell-based
CCRF-CEM = assay: Cytotoxicity against human CCRF-CEM cells assessed as cell growth inhibition; format: functional, cell-based
SK-MEL-28 = assay: Cytotoxicity against human SK-MEL-28 cells assessed as cell growth inhibition; format: functional, cell-based
K562 = assay: Cytotoxicity against human K562 cells assessed as cell growth inhibition; format: functional, cell-based
SK-OV-3 = assay: Cytotoxicity against human SK-OV-3 cells assessed as cell growth inhibition; format: functional, cell-based
NCI-H23 = assay: Cytotoxicity against human NCI-H23 cells assessed as cell growth inhibition; format: functional, cell-based
M14 = assay: Cytotoxicity against human M14 cells assessed as cell growth inhibition; format: functional, cell-based
CAKI-1 = assay: Cytotoxicity against human CAKI-1 cells assessed as cell growth inhibition; format: functional, cell-based
OVCAR-8 = assay: Cytotoxicity against human OVCAR-8 cells assessed as cell growth inhibition; format: functional, cell-based
BT-549 = assay: Cytotoxicity against human BT-549 cells assessed as cell growth inhibition; format: functional, cell-based
IGROV-1 = assay: Cytotoxicity against human IGROV-1 cells assessed as cell growth inhibition; format: functional, cell-based
PC-3 = assay: Cytotoxicity against human PC-3 cells assessed as cell growth inhibition; format: functional, cell-based
KM12 = assay: Cytotoxicity against human KM12 cells assessed as cell growth inhibition; format: functional, cell-based
OVCAR-3 = assay: Cytotoxicity against human OVCAR-3 cells assessed as cell growth inhibition; format: functional, cell-based
OVCAR-4 = assay: Cytotoxicity against human OVCAR-4 cells assessed as cell growth inhibition; format: functional, cell-based
RXF 393 = assay: Cytotoxicity against human RXF 393 cells assessed as cell growth inhibition; format: functional, cell-based
MOLT-4 = assay: Cytotoxicity against human MOLT-4 cells assessed as cell growth inhibition; format: functional, cell-based
SK-MEL-2 = assay: Cytotoxicity against human SK-MEL-2 cells assessed as cell growth inhibition; format: functional, cell-based
UACC-62 = assay: Cytotoxicity against human UACC-62 cells assessed as cell growth inhibition; format: functional, cell-based
HCT-116 = assay: Cytotoxicity against human HCT-116 cells assessed as cell growth inhibition; format: functional, cell-based
HOP-92 = assay: Cytotoxicity against human HOP-92 cells assessed as cell growth inhibition; format: functional, cell-based
SW-620 = assay: Cytotoxicity against human SW620 cells assessed as cell growth inhibition; format: functional, cell-based
786-0 = assay: Cytotoxicity against human 786-0 cells assessed as cell growth inhibition; format: functional, cell-based
SK-MEL-5 = assay: Cytotoxicity against human SK-MEL-5 cells assessed as cell growth inhibition; format: functional, cell-based
OVCAR-5 = assay: Cytotoxicity against human OVCAR-5 cells assessed as cell growth inhibition; format: functional, cell-based
[4] = Cytotoxicity against human hTERT-HME1 cells assessed as cell growth inhibition; format: toxicity, cell-based
[5] = Cytotoxicity against human F180 cells assessed as cell growth inhibition; format: toxicity, cell-based

With `O=C(Nc1ccc(NS(=O)(=O)c2ccccc2)cc1)C12CC3CC(CC(C3)C1)C2` the “inhibition (INH)” value [1] was 97.88%.
For `O=C(n1ccc2cc(OS(=O)(=O)c3ccccc3)ccc21)C12CC3CC(CC(C3)C1)C2`, the “inhibition (INH)” value [1] was 88%.
`O=C(Nc1ccc(OS(=O)(=O)c2ccc(F)cc2)cc1)C1CCCCC1` showed an IC50 (HT-29 [2]) of 4730 nM.
Compound `O=c1[nH]cc(F)c(=O)[nH]1` [FLUOROURACIL] has an IC50 (HL-60(TB)) of 2300 nM, an IC50 (NCI-H460) of 50 nM and an IC50 (MCF7) of 70 nM. The IC50 (U-251) was 920 nM, the IC50 (UO-31) was 1420 nM and the IC50 (DU-145) was 360 nM. For the same compound, the IC50 (NCI-H522) was 7270 nM, the IC50 (HCC 2998) was 50 nM and the IC50 (SF-268) was 1620 nM. The IC50 (A549) was 180 nM, the IC50 (ACHN) was 270 nM and the IC50 (COLO 205) was 150 nM. For the same compound, the IC50 (MDA-MB-231) was 6600 nM, the IC50 (HOP-62) was 390 nM and the IC50 (HCT-15) was 110 nM. For the same compound, the IC50 (SNB-19) was 3810 nM, the IC50 (A498) was 350 nM and the IC50 (HT-29 [3]) was 170 nM. For the same compound, the IC50 (Hs-578T) was 9770 nM, the IC50 (NCI-H226) was 54700 nM and the IC50 (SNB-75) was 78700 nM. It also gave an IC50 (NCI/ADR-RES) of 310 nM, an IC50 (MDA-MB-435) of 70 nM and an IC50 (RPMI-8226) of 40 nM. For the same compound, the IC50 (UACC-257) was 3550 nM, the IC50 (T47D) was 8120 nM and the IC50 (SN12C) was 490 nM. For the same compound, the IC50 (TK-10) was 1120 nM, the IC50 (Malme-3M) was 50 nM and the IC50 (SF-539) was 60 nM. It also gave an IC50 (CCRF-CEM) of 9970 nM, an IC50 (SK-MEL-28) of 1030 nM and an IC50 (K562) of 3580 nM. It also gave an IC50 (SK-OV-3) of 21800 nM, an IC50 (NCI-H23) of 330 nM and an IC50 (M14) of 980 nM. For the same compound, the IC50 (CAKI-1) was 70 nM, the IC50 (OVCAR-8) was 1740 nM and the IC50 (BT-549) was 10600 nM. For the same compound, the IC50 (IGROV-1) was 1220 nM, the IC50 (PC-3) was 2360 nM and the IC50 (KM12) was 210 nM. The IC50 (OVCAR-3) was 10 nM, the IC50 (OVCAR-4) was 4430 nM and the IC50 (RXF 393) was 2610 nM. For the same compound, the IC50 (MOLT-4) was 350 nM, the IC50 (SK-MEL-2) was 56700 nM and the IC50 (UACC-62) was 520 nM. It also gave an IC50 (HCT-116) of 220 nM, an IC50 (HOP-92) of 77900 nM and an IC50 (SW-620) of 920 nM. The IC50 (786-0) was 720 nM, the IC50 (SK-MEL-5) was 460 nM and the IC50 (OVCAR-5) was 10900 nM.
In the case of `COc1cccc2c1C(=O)c1c(O)c3c(c(O)c1C2=O)C[C@@](O)(C(=O)CO)C[C@@H]3O[C@H]1C[C@H](N)[C@H](O)[C@H](C)O1` [DOXORUBICIN], the IC50 [4] is reported as 770 nM and the IC50 [5] is reported as 140 nM.
For `O=C(n1ccc2cc(OS(=O)(=O)c3ccc(F)cc3)ccc21)C12CC3CC(CC(C3)C1)C2`, the “inhibition (INH)” value [1] was 86%.
